Like-named read-outs stand apart in the source and are kept apart here.
Test system: blood-sugar
Assay: Blood-sugar lowering activity in starved female rats after oral administration
Format: in vivo
Settings: for Blood-sugar lowering activity, percent as compared with the controls / change in vivo at 1 mg/kg / change in vivo at 5 mg/kg: n.s. = not statistically significant; for change in vivo at 1 mg/kg / change in vivo at 5 mg/kg / change in vivo at 10 mg/kg: Rattus norvegicus, po, read-out: Blood-sugar lowering activity, percent as compared with the controls
Experimental: The blood-sugar lowering activity of the test compounds was determined in home-bred female rats with weights of from 180 to 220 grams. Twenty-four hours before starting the test the animals were starved. Before the test the compounds were suspended in 1.5% methyl cellulose and administered to the animals by means of an esophageal tube.
Blood was taken from the retroorbital plexus vein before administration of the test compounds as well as each of 1, 2, 3, and 4 hours after administration. Fifty microliters of each sample were deproteinized with 0.5 ml of 0.33N perchloric acid and centrifuged. The glucose content was determined in the supernatant according to the Hexokinase method by means of an analysis photometer. The statistical evalulation was performed with the t-test according to Student with p=0.05.

Row | Structure (SMILES) | Blood-sugar lowering activity, percent as compared with the controls (1 mg/kg orally, 3 hours) | Blood-sugar lowering activity, percent as compared with the controls (1 mg/kg orally, 4 hours) | change in vivo at 1 mg/kg (1 mg/kg orally, 1 hour) | change in vivo at 1 mg/kg (1 mg/kg orally, 2 hours) | change in vivo at 5 mg/kg (5 mg/kg orally, 1 hour) | change in vivo at 5 mg/kg (5 mg/kg orally, 2 hours) | change in vivo at 5 mg/kg (5 mg/kg orally, 3 hours) | change in vivo at 5 mg/kg (5 mg/kg orally, 4 hours) | change in vivo at 1 mg/kg (1 mg/kg orally, 3 hours) | change in vivo at 1 mg/kg (1 mg/kg orally, 4 hours) | Blood-sugar lowering activity, percent as compared with the controls (10 mg/kg orally (footnote *), 3 hours) | Blood-sugar lowering activity, percent as compared with the controls (10 mg/kg orally (footnote *), 4 hours) | change in vivo at 10 mg/kg (10 mg/kg orally (footnote *), 1 hour) | change in vivo at 10 mg/kg (10 mg/kg orally (footnote *), 2 hours) | Blood-sugar lowering activity, percent as compared with the controls (5 mg/kg orally, 3 hours) | Blood-sugar lowering activity, percent as compared with the controls (5 mg/kg orally, 4 hours)
1 | O=C(Cc1ccc(C(=O)O)cc1)NC(c1ccccc1)c1ccc(Cl)cc1N1CCCCC1 (stereo not drawn) [AM, 4-[(4-Chloro-α-phenyl-2-piperidino-benzyl)-aminocarbonylmethyl]-benzoic acid] | n.s. | n.s. | -11% | -13% | -34% | -35% | -32% | -29% |  |  |  |  |  |  |  | 
2 | Cc1cccc(N2CCCCC2)c1C(NC(=O)Cc1ccc(C(=O)O)cc1)c1ccccc1 (stereo not drawn) [AN, 4-[(6-Methyl-α-phenyl-2-piperidino-benzyl)-aminocarbonylmethyl]-benzoic acid] | n.s. | n.s. | -27% | -24% | -39% | -35% | -27% | -26% |  |  |  |  |  |  |  | 
3 | Cc1ccc(C(NC(=O)Cc2ccc(C(=O)O)cc2)c2ccccc2)c(N2CCCCC2)c1 (stereo not drawn) [AO, 4-[(4-Methyl-α-phenyl-2-piperidino-benzyl)-aminocarbonylmethyl]-benzoic acid] |  |  |  | -17% | -37% | -34% | -32% | -31% | -15% | -11% |  |  |  |  |  | 
4 | O=Cc1ccc(CC(=O)NC(c2ccccc2)c2ccccc2N2CCCCC2)cc1 (stereo not drawn) [AP, 4-[(α-Phenyl-2-piperidino-benzyl)-aminocarbonylmethyl]-benzaldehyde] |  |  | -26% | -28% |  |  |  |  | -22% | -17% |  |  |  |  |  | 
5 | CC1CCCCN1c1ccccc1C(NC(=O)Cc1ccc(C(=O)O)cc1)c1ccccc1 (stereo not drawn) [AQ, 4-[(2-(2-Methyl-piperidino)-α-phenyl-benzyl)-aminocarbonylmethyl]-benzoic acid] | n.s. | n.s. | -16% | -11% | -32% | -31% | -24% | -19% |  |  |  |  |  |  |  | 
6 | CC1CCCN(c2ccccc2C(NC(=O)Cc2ccc(C(=O)O)cc2)c2ccccc2)C1 (stereo not drawn) [AR, 4-[(2-(3-Methyl-piperidino)-α-phenyl-benzyl)-aminocarbonylmethyl]-benzoic acid] | n.s. | n.s. | -13% | -9% | -35% | -30% | -29% | -31% |  |  |  |  |  |  |  | 
7 | O=C(Cc1ccc(C(=O)O)cc1)NC(c1ccccc1)c1cccc(Cl)c1N1CCCCC1 (stereo not drawn) [AS, 4-[(3-Chloro-α-phenyl-2-piperidino-benzyl)-aminocarbonylmethyl]-benzoic acid] | n.s. | n.s. | -21% | -13% | -45% | -44% | -42% | -32% |  |  |  |  |  |  |  | 
8 | CC/C=C(\NC(=O)Cc1ccc(C(=O)OCC)cc1)c1ccccc1N1CCCCC1 [B, (Z)-4-[(1-(2-Piperidino-phenyl)-1-buten-1-yl)-aminocarbonylmethyl]-benzoic acid ethyl ester] |  |  | -39% | -19% | -44% | -39% | -26% | -35% | -26% | -30% |  |  |  |  |  | 
9 | COCC(NC(=O)Cc1ccc(C(=O)O)cc1)c1ccccc1N1CCCCC1 (stereo not drawn) [Compound P, 4-[(2-Methoxy-1-(2-piperidino-phenyl)-1-ethyl)-aminocarbonylmethyl]-benzoic acid] | n.s. | n.s. | -37% | -19% | -49% | -43% | -34% | -22% |  |  |  |  |  |  |  | 
10 | CCCC/C=C(\NC(=O)Cc1ccc(C(=O)OCC)cc1)c1ccccc1N1CCCCC1 [E, (Z)-4-[(1-(2-Piperidino-phenyl)-1-hexen-1-yl)-aminocarbonylmethyl]-benzoic acid ethyl ester] |  |  | -23% | -23% | -46% | -40% | -38% | -26% | -12% | -18% |  |  |  |  |  | 
11 | O=C(Cc1ccc(C(=O)O)cc1)N/C(=C\Cc1ccccc1)c1ccccc1N1CCCCC1 [F, (Z)-4-[(3-Phenyl-1-(2-piperidino-phenyl)-1-propen-1-yl)-aminocarbonylmethyl]-benzoic acid] |  |  |  |  | -43% | -42% | -39% | -32% |  |  |  |  |  |  |  | 
12 | CC/C=C(\NC(=O)Cc1ccc(C(=O)O)cc1)c1ccccc1N1CCCC(C)(C)C1 [G, (Z)-4-[(1-(2-(3,3-Dimethyl-piperidino)-phenyl)-1-buten-1-yl)-aminocarbonylmethyl]-benzoic acid] |  |  | -44% | -42% |  |  |  |  | -37% | -31% |  |  |  |  |  | 
13 | CCCC(NC(=O)Cc1ccc(C(=O)O)cc1)c1ccccc1N1CCCC1 (stereo not drawn) [H, 4-[(1-(2-Pyrrolidino-phenyl)-1-butyl)-aminocarbonylmethyl]-benzoic acid] |  |  |  |  | -50% | -46% | -44% | -45% |  |  |  |  |  |  |  | 
14 | CCCC(NC(=O)Cc1ccc(C(=O)O)cc1)c1ccccc1N1CCCCCC1 (stereo not drawn) [M, 4-[(1-(2-Hexahydroazepino-phenyl)-1-butyl)-aminocarbonylmethyl]-benzoic acid] |  | n.s. | -33% | -30% | -46% | -43% | -40% | -36% | -21% |  |  |  |  |  |  | 
15 | CCCCCC(NC(=O)Cc1ccc(C(=O)O)cc1)c1ccccc1N1CCCCC1 (stereo not drawn) [N, 4-[(1-(2-Piperidino-phenyl)-1-hexyl)-aminocarbonylmethyl]-benzoic acid] |  |  |  |  | -42% | -42% | -37% | -33% |  |  |  |  |  |  |  | 
16 | O=C(Cc1ccc(C(=O)O)cc1)NC(CCc1ccccc1)c1ccccc1N1CCCCC1 (stereo not drawn) [O, 4-[(3-Phenyl-1-(2-piperidino-phenyl)-1-propyl)-aminocarbonylmethyl]-benzoic acid] |  |  |  |  |  |  |  |  |  |  | n.s. | n.s. | -38% | -31% |  | 
17 | N#CC(NC(=O)Cc1ccc(C(=O)O)cc1)c1ccccc1N1CCCCC1 (stereo not drawn) [Q, 4-[(α-Cyano-2-piperidino-benzyl)-aminocarbonylmethyl]-benzoic acid] |  |  |  |  | -28% | -13% |  |  |  |  |  |  |  |  | n.s. | n.s.
18 | CCCC(NC(=O)Cc1ccc(CO)cc1)c1ccccc1N1CCCCC1 (stereo not drawn) [R, 4-[(1-(2-Piperidino-phenyl)-1-butyl)-aminocarbonylmethyl]-benzyl alcohol] |  |  | -39% | -34% | -38% | -40% | -35% | -29% | -29% | -24% |  |  |  |  |  | 
19 | CCCC(NC(=O)Cc1ccc(CC(=O)O)cc1)c1ccccc1N1CCCCC1 (stereo not drawn) [S, 4-[(1-(2-Piperidino-phenyl)-1-butyl)-aminocarbonylmethyl]-phenyl-acetic acid] |  | n.s. | -29% | -20% | -49% | -42% | -30% | -17% | -10% |  |  |  |  |  |  | 
